In patent US20260365671A1, “HETEROCYCLIC COMPOUND” (Takeda Pharmaceutical Company Limited, priority 2022, published 2026):

Legend:
NLRP3 inflammasome = biological target: T1, NLRP3 inflammasome (Homo sapiens, UniProt Q96P20); assay: IL-1β TR-FRET assay (THP-1 cells differentiated to macrophages with IFN-γ, LPS primed, ATP activated; HTRF); type: cell-based; conditions: THP-1 macrophages, 50 ng/mL LPS priming, compound 30 min, 20 mM ATP 2 hours
T1 construct: IL-1beta HTRF
Procedure: (§1) The biological activity of Compound (I) with respect to NLRP3 was determined using the following in vitro methods.
IL-1β TR-FRET Assay (Reported as IC50)
Monocytic THP-1 cells (ATCC: TIB-202) were maintained in accordance with the provider's instructions in RPMI media (Life Technologies, Cat #A10491-01); RPMI was supplemented with 10% heat inactivated fetal bovine serum (Corning, Cat #35-010-CV). The cells were differentiated into macrophages by the addition of 25 ng/mL IFN-γ (PeproTech, Cat #AF300-02-100UG) for 24 hours at 37 °C/5% CO2. Media was exchanged with fresh media with no FBS, and the cells were treated with 50 ng/mL LPS (priming step) (LPS-EK: Invivogen, Cat #tlrl-peklps). The cells were plated at 240,000 cells per well in 384-well flat-bottom cell culture plates (FALCON, Cat #353962) and were incubated for 24 hours at 37 °C/5% CO2. Compounds were serially diluted (half log dilutions) with DMSO and were finally diluted with Media with no FBS. The compounds were added to the cells in 384-well plates (added in 1:3) and then the plates were incubated for 30 minutes at 37 °C/5% CO2. The NLRP3 inflammasome was activated with the addition of 20 mM ATP (Sigma Cat #A3377-25G) and the cells were incubated for 2 hours at 37 °C/5% CO2. At the end of the incubation period, 30 μL supernatant was transferred to another 384-well plate and mixed on a plate shaker for 1 minutes. The supernatant was mixed with HTRF Antibody (Human IL1 beta kit, Cisbio, 62HIL1BPEH) in assay plates (Greiner Bio-One, Cat #784075) and the assay plates were incubated in shading box at room temperature for 16-24 hours. HTRF signal was measured by EnVision (Perkinelmer) in accordance with the manufacturer's instructions.
(§2) The IC50 values were calculated from a plot of percentage of inhibition versus the inhibitor concentration by a logistics curve fit according to: Y=[Bottom+(Top−Bottom)]/(1+10^[(Log IC50−X)·Hill Slope], where Y is the % inhibition at the inhibitor concentration, X, “Bottom” is the lowest inhibition value, i.e., 0%, “Top” is the maximum inhibition value, i.e., 100%, and the “Hill Slope” describes the slope of the sigmoidal curve between the “Bottom” and “Top” values. The curve fitting was conducted with XLfit (ver. 5.5.0.5, ID Business Solutions Limited) or internally developed software.
(§3) Table 2 lists in vitro biological assay data (IL-1β and TNF-α) for the compounds shown in the examples. These assays are described in the section entitled Biological Activity, above.

NF-κB pathway = assay: TNF-α assay (THP-1 cells differentiated to macrophages with IFN-γ, NF-κB pathway activated with LPS; ELISA); type: cell-based, Human; conditions: compound 30 min, 50 ng/mL LPS 3 hours
Procedure: as §1
TNF-α Assay (Reported as IC50)
Monocytic THP-1 cells (ATCC: TIB-202) were maintained in accordance with the provider's instructions in RPMI media (Life Technologies, Cat #A10491-01); RPMI was supplemented with 10% heat inactivated fetal bovine serum (Hyclone Cat #SH30396.03). The cells were differentiated into macrophages by the addition of 25 ng/mL IFN-γ for 24 hours at 37 °C/5% CO2. Media was exchanged with fresh media with no FBS. The cells were plated at 40,000 cells per well in 384-well flat-bottom cell culture plates (Costar 3764) containing compounds (added in 1:1000) in a 1:3.16 serial dilution series in DMSO and were incubated for 30 minutes at 37 °C/5% CO2. The NF-κB pathway was activated with the addition of 50 ng/mL LPS and the cells were incubated for 3 hours at 37 °C/5% CO2. At the end of the incubation period, supernatant ([…]) was removed, and […] were monitored using an ELISA (Human TNF-α ELISA, R&D systems, Cat #DY210) according to the manufacturer's instructions.
as §2, §3

[1] = Homo sapiens, THP-1, THP-1 macrophages

T1 sequence (Q96P20 whole entry): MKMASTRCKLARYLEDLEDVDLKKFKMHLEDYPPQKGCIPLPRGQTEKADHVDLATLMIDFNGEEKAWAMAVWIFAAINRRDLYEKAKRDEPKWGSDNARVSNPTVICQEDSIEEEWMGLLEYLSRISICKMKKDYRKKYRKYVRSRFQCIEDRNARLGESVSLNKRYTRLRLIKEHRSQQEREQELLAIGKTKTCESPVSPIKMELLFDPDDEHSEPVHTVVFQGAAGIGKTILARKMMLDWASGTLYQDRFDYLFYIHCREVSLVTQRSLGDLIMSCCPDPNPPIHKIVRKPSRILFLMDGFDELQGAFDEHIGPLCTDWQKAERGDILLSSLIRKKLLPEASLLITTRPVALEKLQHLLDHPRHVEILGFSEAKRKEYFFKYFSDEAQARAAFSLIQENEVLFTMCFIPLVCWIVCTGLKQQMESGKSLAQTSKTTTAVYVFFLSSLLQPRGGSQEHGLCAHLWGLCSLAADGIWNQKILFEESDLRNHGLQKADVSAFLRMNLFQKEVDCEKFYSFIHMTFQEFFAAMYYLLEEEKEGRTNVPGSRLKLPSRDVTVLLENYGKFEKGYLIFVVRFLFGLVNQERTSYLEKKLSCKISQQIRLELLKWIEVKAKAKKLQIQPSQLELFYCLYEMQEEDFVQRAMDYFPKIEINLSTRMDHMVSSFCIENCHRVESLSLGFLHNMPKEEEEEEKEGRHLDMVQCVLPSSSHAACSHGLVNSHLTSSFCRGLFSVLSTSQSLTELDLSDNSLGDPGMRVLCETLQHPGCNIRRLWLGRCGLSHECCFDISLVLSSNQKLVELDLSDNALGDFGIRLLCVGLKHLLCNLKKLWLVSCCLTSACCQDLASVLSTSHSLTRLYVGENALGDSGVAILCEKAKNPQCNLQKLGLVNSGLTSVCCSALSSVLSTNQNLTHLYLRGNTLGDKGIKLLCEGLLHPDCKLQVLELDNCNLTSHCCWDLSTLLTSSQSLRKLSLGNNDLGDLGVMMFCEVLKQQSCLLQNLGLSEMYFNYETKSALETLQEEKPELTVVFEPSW

Row | Structure (SMILES) | IC50 (NLRP3 inflammasome) [nM] | IC50 (NF-κB pathway; [1]) [nM] | IC50 (NF-κB pathway; THP-1 macrophages) [nM]
1 | Cc1cc(C)c(-n2cc3sc(N[C@@H]4CCCN(C5CCOC5)C4)nc3n2)c(O)c1 (single isomer, unassigned) [Example 71, 3,5-dimethyl-2-[5-({(3R)-1-[(S)-oxolan-3-yl]piperidin-3-yl}amino)-2H-pyrazolo[3,4-d][1,3]thiazol-2-yl]phenol or 3,5-dimethyl-2-[5-({(3R)-1-[(R)-oxolan-3-yl]piperidin-3-yl}amino)-2H-pyrazolo[3,4-d][1,3]thiazol-2-yl]phenol (tR1)] | 43 | > 30000 | –
2 | Cc1cc(C)c(-n2cc3sc(N[C@@H]4CCCN(C5CCOC5)C4)nc3n2)c(O)c1 (single isomer, unassigned) [Example 72, 3,5-dimethyl-2-[5-({(3R)-1-[(S)-oxolan-3-yl]piperidin-3-yl}amino)-2H-pyrazolo[3,4-d][1,3]thiazol-2-yl]phenol or 3,5-dimethyl-2-[5-({(3R)-1-[(R)-oxolan-3-yl]piperidin-3-yl}amino)-2H-pyrazolo[3,4-d][1,3]thiazol-2-yl]phenol (tR2)] | 29 | – | > 30000
3 | Cc1cc(C)c(-n2cc3sc(N[C@H]4COC[C@@H]4F)nc3n2)c(O)c1 (single isomer, unassigned) [Example 142, 2-(5-{[(3R,4S)-4-fluorooxolan-3-yl]amino}-2H-pyrazolo[3,4-d][1,3]thiazol-2-yl)-3,5-dimethylphenol or 2-(5-{[(3S,4R)-4-fluorooxolan-3-yl]amino}-2H-pyrazolo[3,4-d][1,3]thiazol-2-yl)-3,5-dimethylphenol (tR1)] | 550 | > 30000 | –
4 | Cc1cc(C)c(-n2cc3sc(N[C@H]4COC[C@@H]4F)nc3n2)c(O)c1 (single isomer, unassigned) [Example 143, 2-(5-{[(3R,4S)-4-fluorooxolan-3-yl]amino}-2H-pyrazolo[3,4-d][1,3]thiazol-2-yl)-3,5-dimethylphenol or 2-(5-{[(3S,4R)-4-fluorooxolan-3-yl]amino}-2H-pyrazolo[3,4-d][1,3]thiazol-2-yl)-3,5-dimethylphenol (tR2)] | 430 | – | > 30000
5 | Cc1cc(C)c(-n2cc3sc(N[C@H]4COC[C@H]4F)nc3n2)c(O)c1 (single isomer, unassigned) [Example 145, 2-(5-{[(3R,4R)-4-fluorooxolan-3-yl]amino}-2H-pyrazolo[3,4-d][1,3]thiazol-2-yl)-3,5-dimethylphenol or 2-(5-{[(3S,4S)-4-fluorooxolan-3-yl]amino}-2H-pyrazolo[3,4-d][1,3]thiazol-2-yl)-3,5-dimethylphenol (tR2)] | 440 | – | > 30000
6 | Cc1cc(C)c(-n2cc3sc(N[C@H]4CN(C)CCC4F)nc3n2)c(O)c1 (stereo in doubt) [Example 10, 2-(5-{[(3S,4S)-4-fluoro-1-methylpiperidin-3-yl]amino}-2H-pyrazolo[3,4-d][1,3]thiazol-2-yl)-3,5-dimethylphenol] | 46 | – | > 10000
7 | CN1CCC[C@@H](Nc2nc3nn(-c4ccc(Br)cc4O)cc3s2)C1 [Example 1, 5-bromo-2-(5-{[(3R)-1-methylpiperidin-3-yl]amino}-2H-pyrazolo[3,4-d][1,3]thiazol-2-yl)phenol] | 25 | > 10000 | –
8 | Cc1cc(Cl)cc(O)c1-n1cc2sc(N[C@@H]3CCCN(C)C3)nc2n1 [Example 2, 5-chloro-3-methyl-2-(5-{[(3R)-1-methylpiperidin-3-yl]amino}-2H-pyrazolo[3,4-d][1,3]thiazol-2-yl)phenol] | 1.6 | > 30000 | –
9 | Cc1cc(F)cc(O)c1-n1cc2sc(N[C@@H]3CCCN(C)C3)nc2n1 [Example 5, 5-fluoro-3-methyl-2-(5-{[(3R)-1-methylpiperidin-3-yl]amino}-2H-pyrazolo[3,4-d][1,3]thiazol-2-yl)phenol] | 15 | > 30000 | –
10 | Cc1cc(F)cc(O)c1-n1cc2sc(N[C@@H]3CCCC[C@H]3O)nc2n1 [Example 6, 5-fluoro-2-(5-{[(1R,2R)-2-hydroxycyclohexyl]amino}-2H-pyrazolo[3,4-d][1,3]thiazol-2-yl)-3-methylphenol] | 980 | > 10000 | –

Second part, the compound after the results:

Row | IC50 (NLRP3 inflammasome) [nM] | IC50 (NF-κB pathway; [1]) [nM] | IC50 (NF-κB pathway; THP-1 macrophages) [nM] | Structure (SMILES)
11 | 860 | > 30000 | – | Cc1cc(C)c(-n2cc3sc(N[C@@H]4C[C@@H](F)CN(C5CCOC5)C4)nc3n2)c(O)c1 (single isomer, unassigned) [Example 73, 2-[5-({(3R,5R)-5-fluoro-1-[(S)-oxolan-3-yl]piperidin-3-yl}amino)-2H-pyrazolo[3,4-d][1,3]thiazol-2-yl]-3,5-dimethylphenol or 2-[5-({(3R,5R)-5-fluoro-1-[(R)-oxolan-3-yl]piperidin-3-yl}amino)-2H-pyrazolo[3,4-d][1,3]thiazol-2-yl]-3,5-dimethylphenol (tR1)]
12 | 560 | – | > 30000 | Cc1cc(C)c(-n2cc3sc(N[C@@H]4C[C@@H](F)CN(C5CCOC5)C4)nc3n2)c(O)c1 (single isomer, unassigned) [Example 74, 2-[5-({(3R,5R)-5-fluoro-1-[(S)-oxolan-3-yl]piperidin-3-yl}amino)-2H-pyrazolo[3,4-d][1,3]thiazol-2-yl]-3,5-dimethylphenol or 2-[5-({(3R,5R)-5-fluoro-1-[(R)-oxolan-3-yl]piperidin-3-yl}amino)-2H-pyrazolo[3,4-d][1,3]thiazol-2-yl]-3,5-dimethylphenol (tR2)]
13 | 3.8 | > 30000 | – | Cc1cc(O)c(-n2cc3sc(N[C@@H]4C[C@@H](F)CN(C)C4)nc3n2)c(C2CC2(F)F)c1 (single isomer, unassigned) [Example 126, 3-[(R)-2,2-difluorocyclopropyl]-2-(5-{[(3R,5R)-5-fluoro-1-methylpiperidin-3-yl]amino}-2H-pyrazolo[3,4-d][1,3]thiazol-2-yl)-5-methylphenol or 3-[(S)-2,2-difluorocyclopropyl]-2-(5-{[(3R,5R)-5-fluoro-1-methylpiperidin-3-yl]amino}-2H-pyrazolo[3,4-d][1,3]thiazol-2-yl)-5-methylphenol (tR2)]
14 | 15 | – | > 30000 | Cc1cc(O)c(-n2cc3sc(N[C@@H]4C[C@@H](F)CN(C)C4)nc3n2)c(C2CC2(F)F)c1 (single isomer, unassigned) [Example 127, 3-[(R)-2,2-difluorocyclopropyl]-2-(5-{[(3R,5R)-5-fluoro-1-methylpiperidin-3-yl]amino}-2H-pyrazolo[3,4-d][1,3]thiazol-2-yl)-5-methylphenol or 3-[(S)-2,2-difluorocyclopropyl]-2-(5-{[(3R,5R)-5-fluoro-1-methylpiperidin-3-yl]amino}-2H-pyrazolo[3,4-d][1,3]thiazol-2-yl)-5-methylphenol (tR1)]
15 | 8.2 | > 30000 | – | Cc1cc(C)c(-n2cc3sc(N[C@@H]4C[C@@H](F)CN(C)C4)nc3n2)c(O)c1 [Example 3, 2-(5-{[(3R,5R)-5-fluoro-1-methylpiperidin-3-yl]amino}-2H-pyrazolo[3,4-d][1,3]thiazol-2-yl)-3,5-dimethylphenol]
16 | 3.6 | > 30000 | – | Cc1cc(C)c(-n2cc3sc(N[C@@H]4CCCN(C)C4)nc3n2)c(O)c1 [Example 4, 3,5-dimethyl-2-(5-{[(3R)-1-methylpiperidin-3-yl]amino}-2H-pyrazolo[3,4-d][1,3]thiazol-2-yl)phenol]
17 | 13 | > 30000 | – | CCN1C[C@H](F)C[C@@H](Nc2nc3nn(-c4c(C)cc(C)cc4O)cc3s2)C1 [Example 7, 2-(5-{[(3R,5R)-1-ethyl-5-fluoropiperidin-3-yl]amino}-2H-pyrazolo[3,4-d][1,3]thiazol-2-yl)-3,5-dimethylphenol]
